According to paper PMC10743905, “Design, Synthesis, and In Vitro and In Vivo Bioactivity Studies of Hydrazide–Hydrazones of 2,4-Dihydroxybenzoic Acid” (International Journal of Molecular Sciences, 2023):
≈ marks a conversion by molar mass, not a printed value.

Each molecule was assayed on Gram-negative bacteria (assay: Broth microdilution, summary over the Gram-negative panel). Details: not given.
Type: cell-based
Text: In vitro antimicrobial activity assays - Methodology
The examined compounds 1 - 24 were screened in vitro for antibacterial and antifungal activities using the broth microdilution method according to procedure reported earlier by our research group and European Committee on Antimicrobial Susceptibility Testing (EUCAST) and Clinical and Laboratory Standards Institute (CLSI) guidelines against a panel of reference and clinical or saprophytic strains of microorganisms, in-cluding Gram-positive bacteria, Staphylococcus aureus ATCC 43300 (Methicillin Resistant S. aureus – MRSA), Staphylococcus aureus ATCC 29213 (Methicillin Susceptible S. aureus – MSSA), Staphylococcus epidermidis ATCC 12228, Enterococcus faecalis ATCC 29212, Micro-coccus luteus ATCC 10240, Bacillus subtilis ATCC 6633 and Bacillus cereus ATCC 10876), Gram-negative bacteria (Bordetella bronchiseptica ATCC 4617, Escherichia coli ATCC 25922, Klebsiella pneumoniae ATCC 13883, Proteus mirabilis ATCC 12453, Salmonella typhimurium ATCC 14028 and Pseudomonas aeruginosa ATCC 9027) and fungi belonging to yeasts (Can-dida albicans ATCC 10231, Candida albicans ATCC 2091, Candida parapsilosis ATCC 22019, Candida glabrata ATCC 90030 and Candida krusei ATCC 14243). The microorganisms be-longing to ATCC came from American Type Culture Collection, routinely used for the evaluation of antimicrobials. All the used microbial cultures were first subcultured on nu-trient agar or Sabouraud agar at 35°C for 18-24 h or 30°C for 24-48 h for bacteria and fungi, […]
The surface of Mueller-Hinton agar (for bacteria) and RPMI 1640 with MOPS (for fungi) were inoculated with the suspensions of bacterial or fungal species. Microbial suspensions were prepared in sterile saline with an optical density of McFarland standard scale 0.5.
Samples containing examined compounds were dissolved in dimethyl sulfoxide (DMSO).
Furthermore, bacterial and fungal suspensions were put onto Petri dishes with solid me-dia containing 2 mg/mL of the tested compounds followed incubation at 37°C for 24h and 30°C for 48h for bacteria and fungi, respectively. The inhibition of microbial growth was judged by comparison with a control culture prepared without any sample tested. Ciprof-loxacin, vancomycin, nitrofurantoin, cefuroxime, ampicillin or nystatin (Sigma) were used as a reference antibacterial or antifungal compounds, respectively.
Subsequently, the MIC (Minimal Inhibitory Concentration) of the compounds was ex-amined by the microdilution broth method, using their two-fold dilutions in Mueller- […]
Hinton broth or (for bacteria) and RPMI 1640 broth with MOPS (for fungi) prepared in 96-well polystyrene plates. Final concentrations of the compounds ranged from 1000 to 0.488 µg/ml. Microbial suspensions were prepared in 0.85% NaCl with an optical density of 0.5 McFarland standard. Next each bacterial or fungal suspension was added per each well containing broth and various concentrations of the examined compounds. After incuba-
CCCc1ccc(/C=N/NC(=O)c2ccc(O)cc2O)cc1 [Compound 13, 2,4-dihydroxy-N-[(4-propylphenyl)methylidene]benzohydrazide] gave an MBC greater than 1000 µg/mL and an MIC of 500 to 1000 µg/mL (≈ 1680 to 3350 µM). For O=C(N/N=C/c1cc(I)cc(I)c1O)c1ccc(O)cc1O [Compound 18, 2,4-dihydroxy-N-[(2-hydroxy-3,5-diiodophenyl)methylidene]benzohydrazide], the MBC was greater than 1000 µg/mL and the MIC was 500 to 1000 µg/mL (≈ 954 to 1910 µM). O=C(N/N=C/c1ccccc1[N+](=O)[O-])c1ccc(O)cc1O [Compound 19, 2,4-dihydroxy-N-[(2-nitrophenyl)methylidene]benzohydrazide] showed an MIC of 500 to 1000 µg/mL (≈ 1660 to 3320 µM).

The molecules below were run on HepG2 (assay: MTT antiproliferative assay). Details: Homo sapiens, 24 h incubation, hepatocellular carcinoma.
Type: cell-based
Protocol: The in vitro studies were performed on the reference line HEK-293 (human embryonic kidney cells, ATCC® CRL-1573™) and […] human cancer cell lines: 769-P (adenocarcinoma, renal cells, ATCC® CRL-1933™) and HepG2 (carcinoma, hepatocellular, ATCC® HB-8065™), H1563 (adenocarcinoma, non-smallcell lung cancer, ATCC® CRL-5875™), LN-229 (glioblastoma, ATCC® CRL-2611™). Cells from the 769-P and H1563 cell lines were cultured in RPMI-1640 growth medium (PAN Biotech GmbH, Aidenbach, Bayern, Germany), cells from the HEK-293 and HepG2 cell lines were cultured in EMEM growth medium (PAN Biotech GmbH, Aidenbach, Bayern, Germany), and cells from the LN-229 cell line were cultured in DMEM growth medium (PAN Biotech GmbH, Aidenbach, Bayern, Germany) in sterile 75 cm^2 culture phalcones. Fetal bovine serum (PAN Biotech GmbH, Aidenbach, Bayern, Germany) at 10% of growth medium and antibiotics (Sigma-Aldrich, Poland) (2.5 µg/mL amphotericin B, 100 µg/mL penicillin, and 100 µg/mL streptomycin) were added to all media. Cells were cultured at 37 °C in an incubator with 5% CO2 flow until a cell layer was formed. Following this, the medium was removed, and the cells were washed with 0.25% trypsin solution with 2.21 mM EDTA (Corning Incorporated, Corning, NY, USA) in order to completely remove fetal bovine serum containing trypsin inhibitor. Finally, 6 mL of complete growth medium was added, and the cells were aspirated by gentle pipetting.
The determination of inhibitory concentration (IC50) in the HEK-293, 769-P, HepG2, H1563, and LN-229 cell cultures for selected hydrazide–hydrazones was performed using the MTT assay procedure. This test was performed according to the MTT Assay ECVAM n°17 protocol manual prepared by the European Centre for the Validation of Alternative Methods (ECVAM), an entity that aims to reduce in vivo testing in favor of in vitro and in silico methods. To 96-well sterile plates, 100 μL of cell suspensions, prepared in the appropriate medium at a concentration of 3 × 10^5 cells/mL, was added using a multichannel pipette. To achieve cell adhesion to the bottom of the plates, cells were incubated for 24 h at 37 °C with 5% CO2 flow and 90% humidity. […] After this time, all medium was removed, 100 μL of DMSO (Corning Incorporated, Corning, NY, USA) was added to each well, and absorbance measurements were performed at 550 nm using a Power Weave xs spectrophotometric microplate reader (BioTek, Winooski, VT, USA). The decrease in absorbance is equivalent to the decrease in MTT formazan production, which is due to the decrease in mitochondrial dehydrogenase activity and indicates a cytotoxic effect from the tested substances. Cell viability is expressed as a percentage as the ratio of the absorbance of test substance-treated cells to the untreated cells. […]
In the case of O=C(N/N=C/c1ccccc1[N+](=O)[O-])c1ccc(O)cc1O [Compound 19, 2,4-dihydroxy-N-[(2-nitrophenyl)methylidene]benzohydrazide], the IC50 is reported as greater than 500 µM. With O=C(N/N=C/c1cccc([N+](=O)[O-])c1)c1ccc(O)cc1O [Compound 20, 2,4-dihydroxy-N-[(3-nitrophenyl)methylidene]benzohydrazide] the IC50 was greater than 500 µM. Work on O=C(N/N=C/c1ccc([N+](=O)[O-])cc1)c1ccc(O)cc1O [Compound 21, 2,4-dihydroxy-N-[(4-nitrophenyl)methylidene]benzohydrazide] yielded an IC50 of 7.81 µM. In the case of O=C(N/N=C/c1ccccc1F)c1ccc(O)cc1O [Compound 24, N-[(2-fluorophenyl)methylidene]-2,4-dihydroxybenzohydrazide], the IC50 is reported as greater than 500 µM.
